Where only a bound is given, the exact number is not on record here.

One test concerns the target T1, ROCK1 (Homo sapiens, UniProt Q13464).
T1 construct: purchased Reaction Biology
In words: ROCK1 kinase assay (Reaction Biology Hot Spot kinase assay). In kind it is biochemical. Conditions: purified kinase, 33P-ATP (10 μM), P81 filter-binding method. How it is done:
(§1) ROCK2 and ROCK] kinase assays
(§2) ROCK2 and ROCK1 enzyme potencies were determined by Reaction Biology (www.reactionbiology.com) using their Hot Spot kinase Assay. The base reaction buffer for the assay was 20 mM Hepes (pH 7.5), 10 mM MgCl2, 1 mM EGTA, 0.01% Brij35, 0.02 mg/mL BSA, 0.1 mM Na3VO4, and 2 mM DTT with a 1% DMSO concentration. Required cofactors were added individually to each kinase reaction. The substrate was freshly prepared in the reaction buffer described above, and then cofactors were delivered. The purified kinase was added to the substrate solution and then gently mixed. Compounds were added from 100% DMSO into the kinase reaction mixture by Acoustic technology (Echo550; nanoliter range) and then incubated for 20 min at room temperature. ^33P-ATP (10 μM) was delivered to initiate the reaction, and then the mixture was incubated again for two hours at room temperature. […] Nat. Biotechnol. 2011 Oct. 30; 29(11):1039-45. doi: 10.1038/nbt.2017.
(§3) The compounds were categorized based on IC50 value as “+”, “++”, “+++”, and “++++”. The category “+” refers to compounds with ROCK IC50 value of >10 μM. The category “++” refers to compounds with a ROCK IC50 value of 10 to 3 μM. The category “+++” refers to compounds with ROCK IC50 value of 3 to 0.3 μM. The category “++++” refers to compounds with a ROCK IC50 value of <0.3 μM. “ND” refers to “not determined.” The compound of an “Example Number” is the final product of an Example entitled the Example Number.

In a further test the target is T2, ROCK2 (Homo sapiens, UniProt O75116).
T2 construct: purchased Reaction Biology
T2 sequence (O75116 whole entry): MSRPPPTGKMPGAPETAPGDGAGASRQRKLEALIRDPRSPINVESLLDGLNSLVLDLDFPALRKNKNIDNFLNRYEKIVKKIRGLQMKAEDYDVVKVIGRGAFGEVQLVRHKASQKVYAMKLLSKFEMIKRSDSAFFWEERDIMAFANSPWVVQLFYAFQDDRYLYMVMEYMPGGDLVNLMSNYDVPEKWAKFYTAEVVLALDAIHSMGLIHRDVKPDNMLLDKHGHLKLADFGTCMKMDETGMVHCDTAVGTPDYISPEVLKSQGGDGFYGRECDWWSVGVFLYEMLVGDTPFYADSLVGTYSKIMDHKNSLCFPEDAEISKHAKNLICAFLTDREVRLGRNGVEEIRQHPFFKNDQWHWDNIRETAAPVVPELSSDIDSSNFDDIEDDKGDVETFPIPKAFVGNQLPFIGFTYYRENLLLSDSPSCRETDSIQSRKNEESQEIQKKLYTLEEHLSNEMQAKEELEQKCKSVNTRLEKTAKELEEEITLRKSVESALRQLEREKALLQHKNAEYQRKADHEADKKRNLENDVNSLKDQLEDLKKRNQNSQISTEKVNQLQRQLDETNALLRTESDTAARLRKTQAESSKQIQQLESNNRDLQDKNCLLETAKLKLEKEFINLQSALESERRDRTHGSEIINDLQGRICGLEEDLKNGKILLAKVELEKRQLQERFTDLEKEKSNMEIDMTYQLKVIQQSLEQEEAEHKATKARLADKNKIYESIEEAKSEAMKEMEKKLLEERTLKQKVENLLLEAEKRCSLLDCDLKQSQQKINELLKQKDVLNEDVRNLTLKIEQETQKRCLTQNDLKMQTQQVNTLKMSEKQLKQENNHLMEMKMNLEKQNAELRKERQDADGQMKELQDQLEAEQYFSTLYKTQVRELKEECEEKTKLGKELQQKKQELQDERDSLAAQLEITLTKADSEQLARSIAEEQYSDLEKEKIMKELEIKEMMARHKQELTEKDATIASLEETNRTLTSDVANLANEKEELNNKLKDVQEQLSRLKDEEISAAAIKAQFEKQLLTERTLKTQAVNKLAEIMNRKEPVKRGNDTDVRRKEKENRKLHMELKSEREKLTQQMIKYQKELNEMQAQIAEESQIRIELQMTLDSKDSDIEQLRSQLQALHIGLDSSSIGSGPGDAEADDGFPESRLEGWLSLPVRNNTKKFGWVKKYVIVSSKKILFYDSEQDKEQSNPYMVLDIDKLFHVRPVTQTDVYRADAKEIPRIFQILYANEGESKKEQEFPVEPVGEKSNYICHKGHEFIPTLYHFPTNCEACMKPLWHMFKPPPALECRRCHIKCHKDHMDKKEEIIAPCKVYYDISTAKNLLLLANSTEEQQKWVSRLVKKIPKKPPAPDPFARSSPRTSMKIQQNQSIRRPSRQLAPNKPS
In words: ROCK2 kinase assay (Reaction Biology Hot Spot kinase assay). In kind it is biochemical. Conditions: purified kinase, 33P-ATP (10 μM), P81 filter-binding method. How it is done: as §1, §2, §3

T1 sequence (Q13464 whole entry): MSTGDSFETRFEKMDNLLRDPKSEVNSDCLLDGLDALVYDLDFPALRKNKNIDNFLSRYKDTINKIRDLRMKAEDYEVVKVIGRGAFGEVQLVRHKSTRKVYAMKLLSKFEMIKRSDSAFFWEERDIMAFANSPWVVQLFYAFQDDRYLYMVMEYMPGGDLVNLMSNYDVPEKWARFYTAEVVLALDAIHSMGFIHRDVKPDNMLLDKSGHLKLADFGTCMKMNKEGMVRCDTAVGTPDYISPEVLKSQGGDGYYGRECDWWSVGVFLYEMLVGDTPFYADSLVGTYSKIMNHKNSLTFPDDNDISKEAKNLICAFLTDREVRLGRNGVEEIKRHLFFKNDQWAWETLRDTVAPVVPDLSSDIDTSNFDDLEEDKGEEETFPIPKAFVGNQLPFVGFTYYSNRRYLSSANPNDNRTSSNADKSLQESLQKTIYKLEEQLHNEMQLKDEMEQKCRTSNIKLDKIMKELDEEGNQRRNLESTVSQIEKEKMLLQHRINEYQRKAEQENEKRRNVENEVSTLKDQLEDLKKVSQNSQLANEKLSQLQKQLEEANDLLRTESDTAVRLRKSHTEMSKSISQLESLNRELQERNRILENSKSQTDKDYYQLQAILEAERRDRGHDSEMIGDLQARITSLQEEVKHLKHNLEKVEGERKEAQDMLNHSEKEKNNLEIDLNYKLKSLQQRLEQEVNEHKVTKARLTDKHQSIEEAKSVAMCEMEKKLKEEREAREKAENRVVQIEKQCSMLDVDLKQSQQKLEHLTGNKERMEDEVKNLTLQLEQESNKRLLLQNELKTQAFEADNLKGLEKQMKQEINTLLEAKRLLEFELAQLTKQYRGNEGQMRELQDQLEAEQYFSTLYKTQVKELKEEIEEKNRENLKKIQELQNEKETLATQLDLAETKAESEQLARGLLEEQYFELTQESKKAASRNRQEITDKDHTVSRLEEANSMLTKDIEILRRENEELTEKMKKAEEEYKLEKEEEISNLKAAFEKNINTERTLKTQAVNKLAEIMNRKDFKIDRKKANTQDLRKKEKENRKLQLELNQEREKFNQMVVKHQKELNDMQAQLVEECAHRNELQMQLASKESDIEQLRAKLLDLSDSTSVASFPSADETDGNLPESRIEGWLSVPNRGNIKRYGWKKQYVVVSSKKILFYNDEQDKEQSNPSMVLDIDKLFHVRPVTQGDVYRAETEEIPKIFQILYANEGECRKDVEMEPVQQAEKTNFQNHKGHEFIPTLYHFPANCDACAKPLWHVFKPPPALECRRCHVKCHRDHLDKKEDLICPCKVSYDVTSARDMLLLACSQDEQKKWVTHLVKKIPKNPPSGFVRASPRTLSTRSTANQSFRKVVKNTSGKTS

As a reminder, the IC50 is the concentration at which inhibition is half-maximal. A low value points to greater potency in that assay. For `Cc1cn(-c2ccc3c(c2)CCN(CC(C)C)C3=O)nc1Nc1ccc2[nH]ncc2c1Cl` [Example 84, 6-[3-[(4-chloro-1H-indazol-5-yl)amino]-4-methyl-pyrazol-1-yl]-2-isobutyl-3,4-dihydroisoquinolin-1-one], the half-inhibitory concentration (IC50) on ROCK1 is 3 to 10 µM; on ROCK2 it was < 0.3 µM.
Take `Cn1cc(C(=O)Nc2cccc(-c3nc(Nc4ccc5[nH]ncc5c4)no3)c2)cn1` [Example 39]: the IC50 on ROCK1 and on ROCK2 was < 0.3 µM each time.
With `Cn1cc(C(=O)Nc2cncc(-n3nc(Nc4ccc5[nH]ncc5c4Cl)c4ccccc43)c2)cn1` [Example 54, N-(5-(3-((4-chloro-1H-indazol-5-yl)amino)-1H-indazol-1-yl)pyridin-3-yl)-1-methyl-1H-pyrazole-4-carboxamide], the 50% inhibitory concentration (IC50) at ROCK1 and on ROCK2 was > 10 µM throughout.
On to `Clc1c(Nc2nnc(-c3cccc(-c4ncco4)c3)o2)ccc2[nH]ncc12` [Example 50, N-(4-chloro-1H-indazol-5-yl)-5-(3-(oxazol-2-yl)phenyl)-1,3,4-oxadiazol-2-amine], for which the IC50 at ROCK1 and on ROCK2 was < 0.3 µM each time.
